Measurements from patent US20170143712A1, “Methods of Treating Cancers, Immune and Autoimmune Diseases, and Inflammatory Diseases Based on BTK Occupancy and BTK Resynthesis Rate” (Acerta Pharma B.V., priority 2014, published 2017).
Read-outs that look alike come from different tables or passages of the source.

What was measured:
psoriasis = settings: tyrosine kinase inhibitors used for malignancies; cited from earlier work
B cell receptor (BCR) [1] = test: Ex vivo anti-IgM induced CD86 and CD69 expression on splenocyte B cells after oral dosing of mice; assay type: in vivo, mouse; settings: single oral 25 mg/kg; for inhibition at 25 mg/kg: Mus musculus, B-cell, 3-24 hours, read-out: CD69 % inhibition over the entire time course; for inhibition of ex vivo anti-IgM induced responses in B cells: 3 hours post-dose
Description: (§1) B cell stimulation through the B cell receptor (BCR) with antibodies (e.g., anti-IgM) results in the activation of BTK and subsequent cellular changes, including the upregulation of various cell surface receptors. Measuring the inhibition of BCR induced protein phosphorylation downstream of Btk, and the inhibition of surface receptor upregulation provides a way to assess the Btk inhibitor activity. In the first study, the BTK target occupancy in splenocytes was measured over time, providing evidence for BTK resynthesis in the tissue compartment of interest.
(§2) Mice were sacrificed at 3, 6, 12, 18, and 24 hours after treatment with the BTK inhibitors (FIG. 27A, FIG. 27B, and FIG. 27C). Spleens were harvested and splenocyte preparations were made for flow cytometry analysis of B cell functions. Fresh or cryopreserved splenocytes were cultured with a-IgM to stimulate BCR, and the up-regulation of CD69, an early functional marker of B cell activation, was analyzed by flow cytometry.

S6 phosphorylation = test: Basal and anti-IgM induced S6 phosphorylation in splenocytes after oral dosing of mice; assay type: in vivo, mouse; settings: single oral 25 mg/kg; rank order Formula (II)>ibrutinib>Formula (XVII)
Description: as §1, §2
A downstream marker of BTK activity, S6 phosphorylation, was also monitored in this study. […] In a second study, the effects of another inhibitor of BTK that covalently inactivates the kinase, Formula (XXI), were compared with Formula (II) to evaluate the return of BCR function and B cell activation, as illustrated in FIG. 29A and FIG. 29B.

[2] = tested on: established type II collagen-induced arthritis (CIA) in DBA/1 mice; test: 14-day mouse established type II collagen-induced arthritis (CIA), PO QD (Example 10); assay type: in vivo; settings: for AUC (All Paws) - Corrected for Initial Score / Change in Body Weight (g) / Histopathology Summed Score Knees / Histopathology Summed Score Paws / Histopathology Summed Score Six-Joints / Paw Score AUC (All Paws): mean(SE); for disease-induced body weight loss (percent change from baseline) vs vehicle controls / arthritis scores measured daily vs vehicle controls: p<0.05 on the days printed; for arthritis scores measured daily vs vehicle controls: all paws
Description: Prior to dosing, the candidate anti-inflammatory agents were reconstituted either by vortexing or stirring. The candidate anti-inflammatory agents were administered to the DBA/1 mice daily (QD) by the oral (PO) route.
Immunization with heterologous type II collagen (CII) induces arthritis in mice of the DBA/1 strain, which is genetically susceptible to this disease. To develop an experimental model of autoimmunity more adequate for the study of human rheumatoid arthritis (RA), male DBA/1 mice were injected intradermally (ID) with bovine type II collagen to induce arthritis as reported by Trentham et al (Trentham D E, Townes A S, Kang A H Autoimmunity to type II collagen: an experimental model of arthritis. J. Exper. Med. 1977, 146:857-868) and Bendele A (Bendele A, Animal models of rheumatoid arthritis. J. Musculoskelet. Neuronal Interact. 2001, 1(4):377-85). Male DBA/1 mice (n=114) that were 6-7 weeks old and weighed approximately 18-27 grams (mean 22 g) at enrollment (arthritis day 1) were obtained from Taconic Farms, Inc. The male DBA/1 mice were at least 6 weeks old at time of first immunization and were housed 3-5/cage in shoe-box polycarbonate cages with wire tops, wood chip bedding, and suspended food and water bottles. These animals were identified by a distinct number of ink marks at the base of the tail delineating animal number. After enrollment, all cages were labeled with protocol number, group number, and animal numbers.
The male DBA/1 (n=10/group for arthritis) were anaesthetized with Isoflurane, shaved at the base of the tail, and injected intradermally with 150 μL of Freund's Complete Adjuvant (Difco, Detroit, Mich.) containing bovine type II collagen (BBP, batch #7) (1 mg/ml) at the base of the tail on day 0 and again on day 21. […] Randomization was done after swelling was obviously established in at least one paw (score of 1) and attempts were made to ensure approximately equal mean scores of 0.5-1 across groups at the time of enrollment. […] The male DBA/1 mice were terminated on arthritis day 14 (3 hours post-dose).
Efficacy evaluation of the administered anti-inflammatory agents was based on animal body weights, clinical arthritis scores, arthritis scores expressed as area under the curve (AUC), and histopathology on fore paws, hind paws, and knees. Histopathology results were expressed as 4 paws, knees only, or 6 joints (knees included). Day 13 was used as the endpoint for analysis of body weight change since the male DBA/1 mice were fasted overnight prior to necropsy on day 14.

[3] = tested on: BCR signaling through BTK; test: Anti-IgM induced CD86 and CD69 on splenocyte B cells of CIA mice; assay type: in vivo, mouse; settings: splenocytes 3 hr after last dosing on day 14
Description: (§3) FIG. 45 illustrates changes in a functional measure of BCR signalling through the CD86 marker. Mouse splenocytes were isolated from spleens from mice that were part of the mouse CIA study semi-therapeutic protocol, 3 hr after the last dosing on day 14 of the treatment and cryopreserved. After thawing, inhibition of anti-IgM-induced PD markers CD86 and CD69 on mouse splenocyte B cells were measured. Error bars represent the standard deviation for the 3 sets of splenocytes analyzed.
as §3, with “FIG. 46” for “FIG. 45”, “the CD69” for “the CD86”
Inhibition of the BCR signaling through BTK was evaluated by ex vivo stimulation of splenocytes using IgM and evaluation of CD86 and CD69 as functional responses of BCR stimulation.

B cell receptor (BCR) [4] = test: Ex vivo anti-IgM induced CD86 and CD69 expression on splenocyte B cells after oral dosing of mice; assay type: in vivo; settings: Mus musculus, single oral 25 mg/kg, 3-24 hours, read-out: CD86 % inhibition over the entire time course
BTK = target: T1, BTK (Mus musculus, UniProt P35991); test: BTK target occupancy in mouse splenocytes after a single oral dose; assay type: in vivo; settings: single oral 25 mg/kg, 3 hours
T1 construct: from tissue; host or cells: mouse spleen (splenocytes), animals dosed in vivo; A19 used DBA/1 mice with collagen-induced arthritis
T1 sequence (P35991 whole entry): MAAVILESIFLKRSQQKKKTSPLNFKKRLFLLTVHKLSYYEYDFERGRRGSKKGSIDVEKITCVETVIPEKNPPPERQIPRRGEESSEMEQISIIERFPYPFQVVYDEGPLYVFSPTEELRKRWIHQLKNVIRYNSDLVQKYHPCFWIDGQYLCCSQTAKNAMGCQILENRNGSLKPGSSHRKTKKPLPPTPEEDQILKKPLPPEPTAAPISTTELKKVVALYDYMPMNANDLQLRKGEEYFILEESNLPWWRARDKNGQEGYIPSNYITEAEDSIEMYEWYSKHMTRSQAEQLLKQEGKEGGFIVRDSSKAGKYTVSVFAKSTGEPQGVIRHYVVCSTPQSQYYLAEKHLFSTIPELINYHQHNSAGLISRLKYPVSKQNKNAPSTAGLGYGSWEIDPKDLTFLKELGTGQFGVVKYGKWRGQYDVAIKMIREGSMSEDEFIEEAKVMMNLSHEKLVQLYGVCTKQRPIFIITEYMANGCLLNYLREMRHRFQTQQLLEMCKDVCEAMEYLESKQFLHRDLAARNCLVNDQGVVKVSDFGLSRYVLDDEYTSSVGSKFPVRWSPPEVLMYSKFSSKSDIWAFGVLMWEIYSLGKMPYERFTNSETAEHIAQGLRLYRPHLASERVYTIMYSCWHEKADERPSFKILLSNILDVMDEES

Cc1ccc(C(=O)Nc2ccc(CN3CCN(C)CC3)c(C(F)(F)F)c2)cc1C#Cc1cnc2cccnn12 [Ponatinib]
effect on psoriasis / skin in patients (psoriasis): induces an almost psoriasis-like disease

C=CC(=O)N1CCC[C@@H](n2nc(-c3ccc(Oc4ccccc4)cc3)c3c(N)ncnc32)C1 [ibrutinib, (R)-1-(3-(4-amino-3-(4-phenoxyphenyl)-1H-pyrazolo[3,4-d]pyrimidin-1-yl)piperidin-1-yl)prop-2-en-1-one]
inhibition at 25 mg/kg (B cell receptor (BCR) [1]): 83.4%
inhibition of ex vivo anti-IgM induced responses in B cells (B cell receptor (BCR) [1]): near complete inhibition
inhibition of CD86 and CD69 expression (B cell receptor (BCR) [1]; persisting for 24 hours): partial inhibition
basal state and anti-IgM induced S6 phosphorylation (S6 phosphorylation): inhibited both basal state and anti-IgM induced S6 phosphorylation
AUC (All Paws) - Corrected for Initial Score ([2]; 1 mg/kg PO QD): 20.81(4.47)
Change in Body Weight (g) ([2]; 1 mg/kg PO QD): −1.28(0.69) g
Histopathology Summed Score Knees ([2]; 1 mg/kg PO QD): ‡10.15(1.16)
Histopathology Summed Score Paws ([2]; 1 mg/kg PO QD): 10.30(1.84)
Histopathology Summed Score Six-Joints ([2]; 1 mg/kg PO QD): 10.25(1.36)
Paw Score AUC (All Paws) ([2]; 1 mg/kg PO QD): 28.29(5.18)
disease-induced body weight loss (percent change from baseline) vs vehicle controls ([2]; 1 mg/kg PO QD): significantly inhibited toward normal
daily arthritis scores vs vehicle controls ([2]; 1 mg/kg PO QD, prophylactic paws): significantly reduced toward normal
six-joint histopathology, reduction of summed scores vs vehicle controls ([2]; 5 mg/kg PO QD): 79%
total body weight loss from enrollment to study termination ([2]; 5 mg/kg PO QD): significantly inhibited
arthritis scores measured daily vs vehicle controls ([2]; 5 mg/kg PO QD): significantly reduced toward normal
AUC (All Paws) - Corrected for Initial Score ([2]; 5 mg/kg PO QD): *3.68(2.18)
Change in Body Weight (g) ([2]; 5 mg/kg PO QD): *0.45(0.65) g
Histopathology Summed Score Paws ([2]; 5 mg/kg PO QD): *3.63(1.07)
Histopathology Summed Score Six-Joints ([2]; 5 mg/kg PO QD): *3.11(0.95)
disease-induced body weight loss (percent change from baseline) vs vehicle controls ([2]; 5 mg/kg PO QD): significantly inhibited toward normal
daily arthritis scores vs vehicle controls ([2]; 5 mg/kg PO QD, prophylactic paws): significantly reduced toward normal
six-joint histopathology, reduction of summed scores vs vehicle controls ([2]; 25 mg/kg PO QD): 94%
total body weight loss from enrollment to study termination ([2]; 25 mg/kg PO QD): significantly inhibited
arthritis scores measured daily vs vehicle controls ([2]; 25 mg/kg PO QD): significantly reduced toward normal
AUC (All Paws) - Corrected for Initial Score ([2]; 25 mg/kg PO QD): *−4.09(1.58)
Change in Body Weight (g) ([2]; 25 mg/kg PO QD): *0.83(0.62) g
Histopathology Summed Score Knees ([2]; 25 mg/kg PO QD): *0.65(0.29)
Histopathology Summed Score Paws ([2]; 25 mg/kg PO QD): *0.91(0.48)
Histopathology Summed Score Six-Joints ([2]; 25 mg/kg PO QD): *0.83(0.30)
Paw Score AUC (All Paws) ([2]; 25 mg/kg PO QD): *3.06(1.08)
disease-induced body weight loss (percent change from baseline) vs vehicle controls ([2]; 25 mg/kg PO QD): significantly inhibited toward normal
daily arthritis scores vs vehicle controls ([2]; 25 mg/kg PO QD, prophylactic paws): significantly reduced toward normal
daily arthritis scores vs vehicle controls ([2]; 25 mg/kg PO QD, therapeutic paws): significantly reduced toward normal
spleen weights compared to vehicle controls ([2]; all dose groups PO QD): not significantly affected
BCR-mediated signaling (anti-IgM induced CD86 and CD69) [3]: dose-responsive decreases in BCR-mediated signaling
inhibition at 25 mg/kg (B cell receptor (BCR) [4]): 62.9%

Cc1ccc(NC(=O)c2ccc(CN3CCN(C)CC3)cc2)cc1Nc1nccc(-c2cccnc2)n1 [imatinib]
effect on psoriasis / skin in patients (psoriasis): may cause worsening of psoriasis

Cc1nc(Nc2ncc(C(=O)Nc3c(C)cccc3Cl)s2)cc(N2CCN(CCO)CC2)n1 [dasatinib]
effect on psoriasis / skin in patients (psoriasis): has not been reported to improve psoriasis

C=CC(=O)Nc1cccc(Nc2nc(Nc3ccc(OCCOC)cc3)ncc2F)c1 [Formula (XVII), N-(3-((5-fluoro-2-((4-(2-methoxyethoxy)phenyl)amino)pyrimidin-4-yl)amino)phenyl)acrylamide]
inhibition at 25 mg/kg (B cell receptor (BCR) [1]): 44.8%
inhibition of ex vivo anti-IgM induced responses in B cells (B cell receptor (BCR) [1]): incomplete inhibition
basal state and anti-IgM induced S6 phosphorylation (S6 phosphorylation): inhibited both basal state and anti-IgM induced S6 phosphorylation
BTK target occupancy in splenocytes (BTK): incomplete BTK target occupancy
inhibition at 25 mg/kg (B cell receptor (BCR) [4]): 28.1%
